Common to all, as to assay type: cell-based
Assay [1] has as its system YAP/TAZ-TEAD transcription. The assay is described as follows: Reporter gene assay (TEAD-responsive element luciferase reporter in Hek293T cells) for inhibition of YAP/TAZ-TEAD transcription. The following applies: 24 hours incubation. How it is done:
Hek293T cells are cultured in DMEM supplemented with 10% fetal bovine serum, Sodium pyruvate, Sodium bicarbonate, L-glutamine. The cells are harvested and transiently transfected with TEAD-responsive element luciferase reporter. Transfected cells are plated in 384-wells plate containing pre-diluted compounds. After 24 hours incubation at 37° C./5% CO2, assay plates were cooled down to RT and levelled to an equal volume per well, prior to the addition of 25 uL luciferase substrate SteadyLite (Perkin Elmer)/well. The plate was shaken for 10 min at 600 rpm, centrifuged for 1 min at 500 rpm and measured with an Envision reader (PerkinElmer). The amount of relative light units produced by the TEAD reporter is used to calculated percent of inhibition.
The percent of reporter inhibition was calculated in the presence of a positive control inhibitor (100% inhibition)versus a condition with the presence of the vehicle basal activity of the reporter (0% inhibition). The ability of a test compound to inhibit this activity was determined as:
Percentage inhibition=[1-((RLU determined in the presence of vehicle−RLU determined for sample with test compound present) divided by (RLU determined in the presence of vehicle−RLU determined for sample with positive control inhibitor))]*100
The activities of example compounds tested are depicted in Table 3. The activity ranges A, B and C refer to IC50 values in the reporter gene assay as follows: “A”: IC50<1 μM; “B”: 1 μM≤IC50≤20 μM and “C”: IC50>20 μM; NT=not tested.

The next assay concerns NCI-H2052. The assay is described as follows: Mesothelioma cell line proliferation assay (ATPlite), NCI-H2052. The note with it: Homo sapiens, 144 h; NCI-H2052 mesothelioma cells, 6 days incubation, ATPlite cell viability. How it is done:
(§1) Mesothelioma cell lines, NCI-H226 and NCI-H2052 (all sourced from the ATCC cell culture collection) are plated in 96-well plates (Corning® 96 Well White Polystyrene Microplate clear flat bottom, white polystyrene (TC-Treated)), at 1500 cells/well in full medium (RPMI 1640 ATCC modification with L-glutamine, HEPES, Phenol Red, Sodium Pyruvate, High glucose, Low sodium bicarbonate and 10% fetal bovine serum). Cells are incubated overnight at 37° C. in an incubator with 5% CO2. Then compounds, dissolved in DMSO, are added in dose-response. Cells are incubated with compound dilutions for another 6 days at 37° C. in an incubator with 5% CO2. Cell viability is quantitated using the ATPlite kit (Perkin-Elmer) and the luminescence is read-out using an Envision instrument (Perkin-Elmer). The amount of relative light units produced using the ATPlite kit is used to calculated percent of inhibition.
(§2) The activities of some example compounds are depicted in Table 4. The activity ranges A, B and C refer to EC50 values in the mesothelioma cell line proliferation assay as described as follows: “A”: EC50<1 μM; “B”: 1 μM≤EC50≤10 μM and “C”: EC50>10 μM; NT: not tested.
In general terms: ATP-based viability assays read luminescence as a measure of living cells.

The test system of another assay is NCI-H226. The assay is described as follows: Mesothelioma cell line proliferation assay (ATPlite), NCI-H226. The note with it: Homo sapiens, 144 h; NCI-H226 mesothelioma cells, 6 days incubation, ATPlite cell viability. How it is done:
as §1, §2

Where only a bound is given, the exact number is not on record here.

For orientation: IC50 means the concentration needed to halve the response being measured. Low readings indicate greater potency, high ones weaker potency. The EC50 is the concentration giving half of the maximal effect. Lower therefore signals a more potent agent.

In assay [1], `OCCNC1CCc2ccccc2N(c2ccc(C(F)(F)F)cc2)C1` (single isomer, unassigned) [Cpd. No. 003-En2, (R)- or (S)-2-((1-(4-(trifluoromethyl)phenyl)-2,3,4,5-tetrahydro-1H-benzo[b]azepin-3-yl)amino)ethan-1-ol] returned an IC50 of 1000 to 20000 nM.

On to `C=CC(=O)NC1CCc2ccccc2N(c2ccc(C(F)(F)F)cc2)C1` (single isomer, unassigned) [Cpd. No. 008-En2, (R)- or (S)-N-(1-(4-(trifluoromethyl)phenyl)-2,3,4,5-tetrahydro-1H-benzo[b]azepin-3-yl)acrylamide], for which the IC50 in assay [1] was below 1000 nM.

Turning to `C=CC(=O)NC1Cc2ccccc2N(c2ccc(C(F)(F)F)cc2)C1=O` (stereo not drawn) [Cpd. No. 013, N-(2-oxo-1-(4-(trifluoromethyl)phenyl)-1,2,3,4-tetrahydroquinolin-3-yl)acrylamide], the EC50 with NCI-H2052 and in the assay on NCI-H226 was below 1000 nM throughout. This compound also came in with an IC50 in assay [1] (Homo sapiens, HEK-293T) below 1000 nM.

`NC1CCc2ccccc2N(c2ccc(C(F)(F)F)cc2)C1` (stereo not drawn) [Cpd. No. 001, 1-(4-(trifluoromethyl)phenyl)-2,3,4,5-tetrahydro-1H-benzo[b]azepin-3-amine] returned an IC50 in assay [1] (Homo sapiens, HEK-293T) of 1000 to 20000 nM.

`O=C1C(NCCO)CCc2ccccc2N1c1ccc(C(F)(F)F)cc1` (stereo not drawn) [Cpd. No. 004, 3-((2-hydroxyethyl)amino)-1-(4-(trifluoromethyl)phenyl)-1,3,4,5-tetrahydro-2H-benzo[b]azepin-2-one] displayed an IC50 in assay [1] (Homo sapiens, HEK-293T) of 1000 to 20000 nM.

As for `O=C1CCCN(c2ccc(C(F)(F)F)cc2)c2ccc(NCCO)cc21` [Cpd. No. 011, 7-((2-hydroxyethyl)amino)-1-(4-(trifluoromethyl)phenyl)-1,2,3,4-tetrahydro-5H-benzo[b]azepin-5-one], the IC50 in assay [1] (Homo sapiens, HEK-293T) was 1000 to 20000 nM.

The compound `O=C1CCCN(c2ccc(C(F)(F)F)cc2)c2ccc(NCCCO)cc21` [Cpd. No. 012, 7-((3-hydroxypropyl)amino)-1-(4-(trifluoromethyl)phenyl)-1,2,3,4-tetrahydro-5H-benzo[b]azepin-5-one] displayed an IC50 in assay [1] (Homo sapiens, HEK-293T) above 20000 nM.

For `O=C(O)CCNC1CCc2ccccc2N(c2ccc(C(F)(F)F)cc2)C1` (stereo not drawn) [Cpd. No. 006, 3-((1-(4-(trifluoromethyl)phenyl)-2,3,4,5-tetrahydro-1H-benzo[b]azepin-3-yl)amino)propanoic acid], the IC50 in assay [1] (Homo sapiens, HEK-293T) was above 20000 nM.

For the compound `C=CC(=O)NC1Cc2cnccc2N(c2ccc(C(F)(F)F)cc2)C1=O` (stereo not drawn) [Cpd. No. 015, N-(2-oxo-1-(4-(trifluoromethyl)phenyl)-1,2,3,4-tetrahydro-1,6-naphthyridin-3-yl)acrylamide], the IC50 in assay [1] (Homo sapiens, HEK-293T) was 1000 to 20000 nM.

With `O=C1C(NCCCO)CCc2ccccc2N1c1ccc(C(F)(F)F)cc1` (stereo not drawn) [Cpd. No. 007, 3-((3-hydroxypropyl)amino)-1-(4-(trifluoromethyl)phenyl)-1,3,4,5-tetrahydro-2H-benzo[b]azepin-2-one], the IC50 in assay [1] (Homo sapiens, HEK-293T) was above 20000 nM.

`NC1CCc2ccccc2N(c2ccc(C(F)(F)F)cc2)C1=O` (stereo not drawn) [Cpd. No. 002, 3-amino-1-(4-(trifluoromethyl)phenyl)-1,3,4,5-tetrahydro-2H-benzo[b]azepin-2-one] showed a concentration for half-maximal inhibition (IC50) in assay [1] (Homo sapiens, HEK-293T) above 20000 nM.

For `C=CC(=O)NC1Cc2c(F)cccc2N(c2ccc(C(F)(F)F)cc2)C1=O` (stereo not drawn) [Cpd. No. 014, N-(5-fluoro-2-oxo-1-(4-(trifluoromethyl)phenyl)-1,2,3,4-tetrahydroquinolin-3-yl)acrylamide], the EC50 with NCI-H2052 and with NCI-H226 was below 1000 nM each time. In addition, the IC50 in assay [1] (Homo sapiens, HEK-293T) is below 1000 nM.

On to `OCCNC1CCc2ccccc2N(c2ccc(C(F)(F)F)cc2)C1` (single isomer, unassigned) [Cpd. No. 003-En1, (R)- or (S)-2-((1-(4-(trifluoromethyl)phenyl)-2,3,4,5-tetrahydro-1H-benzo[b]azepin-3-yl)amino)ethan-1-ol], for which, in assay [1] (Homo sapiens, HEK-293T), the IC50 is 1000 to 20000 nM.

Take `C=CC(=O)NC1CCc2ccccc2N(c2ccc(C(F)(F)F)cc2)C1` (single isomer, unassigned) [Cpd. No. 008-En1, (R)- or (S)-N-(1-(4-(trifluoromethyl)phenyl)-2,3,4,5-tetrahydro-1H-benzo[b]azepin-3-yl)acrylamide]: in assay [1] (Homo sapiens, HEK-293T), the IC50 was below 1000 nM.

Take `C=CC(=O)NC1CCc2ccccc2N(c2ccc(C(F)(F)F)cc2)C1` (stereo not drawn) [Cpd. No. 008, N-(1-(4-(trifluoromethyl)phenyl)-2,3,4,5-tetrahydro-1H-benzo[b]azepin-3-yl)acrylamide]: the EC50 in the assay with NCI-H2052 and in the assay with NCI-H226 was below 1000 nM in each case. The compound further came in with an IC50 in assay [1] (Homo sapiens, HEK-293T) of 1000 to 20000 nM.

For the compound `OCCNC1CCc2ccccc2N(c2ccc(C(F)(F)F)cc2)C1` (stereo not drawn) [Cpd. No. 003, 2-((1-(4-(trifluoromethyl)phenyl)-2,3,4,5-tetrahydro-1H-benzo[b]azepin-3-yl)amino)ethan-1-ol], the EC50 in the assay with NCI-H2052 and with NCI-H226 was above 10000 nM each time. Moreover, the IC50 in assay [1] (Homo sapiens, HEK-293T) was in the range of 1000 to 20000 nM.

`C=CC(=O)NC1CCc2ccccc2N(c2ccc(C(F)(F)F)cc2)C1=O` (stereo not drawn) [Cpd. No. 010, N-(2-oxo-1-(4-(trifluoromethyl)phenyl)-2,3,4,5-tetrahydro-1H-benzo[b]azepin-3-yl)acrylamide] yielded an IC50 in assay [1] (Homo sapiens, HEK-293T) above 20000 nM.

In assay [1] (Homo sapiens, HEK-293T), `OCCCNC1CCc2ccccc2N(c2ccc(C(F)(F)F)cc2)C1` (stereo not drawn) [Cpd. No. 005, 3-((1-(4-(trifluoromethyl)phenyl)-2,3,4,5-tetrahydro-1H-benzo[b]azepin-3-yl)amino)propan-1-ol] came in with an IC50 of 1000 to 20000 nM.

Take `CCC(=O)NC1CCc2ccccc2N(c2ccc(C(F)(F)F)cc2)C1` (stereo not drawn) [Cpd. No. 009, N-(1-(4-(trifluoromethyl)phenyl)-2,3,4,5-tetrahydro-1H-benzo[b]azepin-3-yl)propionamide]: the IC50 in assay [1] (Homo sapiens, HEK-293T) lay in the range of 1000 to 20000 nM.

Source of the values: patent publication US12378202B2, “Tetrahydrobenzoazepinones and related analogs for inhibiting YAP/TAZ-TEAD” (THE KATHOLIEKE UNIVERSITEIT LEUVEN, priority 2021, dated 2025).
